In BindingDB's records for patent US10561657 (Centaurus Biophrama, 2020):

Biological target: Tyrosine-protein kinase JAK2 (Homo sapiens, UniProt O60674)
Assay: Enzymatic Activity Assay
Method: A testing platform for kinase activity of JAK2 (wild type and V617F mutant type) was established based on Homogeneous Time-Resolved Fluorescence (HTRF) assay, and the activities of the compounds were tested using the platform. The compounds were subjected to three-fold gradient dilutions with 100% DMSO with a starting concentration of 1 mM (11 dilutions in total). 4 μL of each dilution was added to 96 μL of reaction buffer (50 mM HEPES, pH 7.4, 10 mM MgCl2, 1 mM EGTA, 0.01% Tween-20, 0.005% BAS, 2 mM DTT) and mixed homogeneously. […] The mixture was mixed homogeneously by centrifugation. […] The plate was incubated in the incubator for 1 hr, and then the fluorescence values were read on Envision (available from PerkinElmer). […] The enzymatic activity was representd by a ratio of the two readout at the two emission wavelengths.

Tyrosine-protein kinase JAK2, sequence (O60674 whole entry): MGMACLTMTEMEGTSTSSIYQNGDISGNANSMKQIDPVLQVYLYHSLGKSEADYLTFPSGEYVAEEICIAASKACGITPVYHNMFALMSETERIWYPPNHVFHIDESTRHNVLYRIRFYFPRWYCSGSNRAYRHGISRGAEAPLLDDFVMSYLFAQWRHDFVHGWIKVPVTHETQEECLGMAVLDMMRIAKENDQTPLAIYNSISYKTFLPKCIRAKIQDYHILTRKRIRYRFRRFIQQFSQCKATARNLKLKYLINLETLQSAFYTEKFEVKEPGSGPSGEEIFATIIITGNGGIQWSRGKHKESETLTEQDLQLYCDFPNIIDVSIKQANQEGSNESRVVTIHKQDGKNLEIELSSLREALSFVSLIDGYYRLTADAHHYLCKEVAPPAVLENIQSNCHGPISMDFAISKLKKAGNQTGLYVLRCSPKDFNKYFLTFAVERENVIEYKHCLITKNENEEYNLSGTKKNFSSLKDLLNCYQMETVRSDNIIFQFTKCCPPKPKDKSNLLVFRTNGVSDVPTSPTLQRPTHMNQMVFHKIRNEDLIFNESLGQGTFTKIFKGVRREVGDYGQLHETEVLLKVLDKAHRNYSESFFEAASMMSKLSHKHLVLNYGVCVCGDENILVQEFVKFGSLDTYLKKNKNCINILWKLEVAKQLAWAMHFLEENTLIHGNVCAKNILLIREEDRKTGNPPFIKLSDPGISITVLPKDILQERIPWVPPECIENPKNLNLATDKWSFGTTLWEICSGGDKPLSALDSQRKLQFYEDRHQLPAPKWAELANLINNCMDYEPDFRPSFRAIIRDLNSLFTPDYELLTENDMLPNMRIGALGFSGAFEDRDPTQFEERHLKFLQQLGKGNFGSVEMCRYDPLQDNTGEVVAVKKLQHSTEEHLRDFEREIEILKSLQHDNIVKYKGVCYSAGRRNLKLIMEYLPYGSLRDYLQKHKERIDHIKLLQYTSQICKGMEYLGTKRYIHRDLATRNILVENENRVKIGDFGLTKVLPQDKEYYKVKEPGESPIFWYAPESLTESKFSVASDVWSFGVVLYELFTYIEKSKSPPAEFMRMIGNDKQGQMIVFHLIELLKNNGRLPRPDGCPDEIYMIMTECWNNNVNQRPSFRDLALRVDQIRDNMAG

IC50	Structure (SMILES)
< 20 nM	CS(=O)(=O)Nc1nn(C(CC#N)C2CCCC2)cc1-c1ncnc2[nH]ccc12 (configuration not stated) [US10561657, Example 10]
< 100 nM	NC(=O)CC(C1CCCC1)n1cc(-c2ncnc3[nH]ccc23)c(N)n1 (configuration not stated) [US10561657, Example 2]
